Among the data in patent publication EP0482939A1, “Isoquinolinone derivative” (ONO PHARMACEUTICAL CO., LTD., priority 1990, dated 1992) are ED50 and LD50 values, retold here.

One series deals with T1, 5-HT3 receptor (Rattus norvegicus, UniProt P35563).
T1 construct: from tissue
T1 sequence (P35563 24-483): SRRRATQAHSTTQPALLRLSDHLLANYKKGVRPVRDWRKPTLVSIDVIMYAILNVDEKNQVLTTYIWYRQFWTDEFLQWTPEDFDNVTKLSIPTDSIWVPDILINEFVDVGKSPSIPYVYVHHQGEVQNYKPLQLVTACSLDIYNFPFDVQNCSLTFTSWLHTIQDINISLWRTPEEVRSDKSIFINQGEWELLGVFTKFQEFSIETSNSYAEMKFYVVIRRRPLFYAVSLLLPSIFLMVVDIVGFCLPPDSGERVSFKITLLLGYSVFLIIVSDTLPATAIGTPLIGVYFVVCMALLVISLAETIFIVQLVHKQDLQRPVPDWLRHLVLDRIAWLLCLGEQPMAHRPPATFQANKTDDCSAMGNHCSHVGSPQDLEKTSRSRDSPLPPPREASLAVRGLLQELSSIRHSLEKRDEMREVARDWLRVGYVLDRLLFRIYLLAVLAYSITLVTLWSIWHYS
Nature of the series: Suppression of 5-HT-induced reflex bradycardia in urethane-anesthetised rats (antagonistic activity against 5-HT3 receptor in vivo). The arrangement: species or system Male Wister rat. To be noted: intravenous administration, suppression of reflex bradycardia generated by i.v. 5-HT, read-out: IC50 i.v. The method, then: Male Wister rat was urethane-anesthetised and fixed. Cannulas were inserted in the carotoid artery and in the thigh vein as used for recording of blood pressure and heart beat, and for the administration of the test compounds, respectively.
Several doses of a compound of the present invention were administered from the vein. 5-HT was administered rapidly to the vein, 2 mins. after insertion of cannulas. The suppression effect of the compounds were confirmed by the measurement of the reflex bradycardia generated (Nature 316, 126 (1985)).

Series [1] can be described thus: Acute toxicity by intravenous administration. To be noted: mouse, in vivo; intravenous administration in mice. The method, then: Tests confirmed that the toxicity of the compounds of the present invention is very low. Therefore, the compounds of the present invention may be considered to be sufficiently safe and suitable for pharmaceutical use.
For example, the value of acute toxicity (LD50) of the compound prepared as in Example 1 was 50 mg/kg animal body weight by intravenous administration in mice.

With `CNc1cc2ccn(Cc3nc[nH]c3C)c(=O)c2cc1Cl.Cl.Cl` [1(d), 6-methylamino-7-chloro-2-(5-methyl-imidazol-4-ylmethyl)-1,2-dihydro-isoquinolin-1-one dihydrochloride], the ED50 on 5-HT3 receptor was found to be 0.49 mg/kg.
The same measure, in the same setting: the figure for `CNc1cc(Cl)cc2c(=O)n(Cc3nc[nH]c3C)ccc12.Cl.Cl` [1(e), 5-methylamino-7-chloro-2-(5-methyl-imidazol-4-ylmethyl)-1,2-dihydro-isoquinolin-1-one dihydrochloride] is 1.44 mg/kg; for `CC(=O)Nc1cc2ccn(Cc3nc[nH]c3C)c(=O)c2cc1Cl` [Example 1(a)] it is 0.99 mg/kg.
`Cc1[nH]cnc1Cn1ccc2cc(N)c(Cl)cc2c1=O.Cl.Cl` [Example 1, 6-amino-7-chloro-2-(5-methylimidazol-4-ylmethyl)-1,2-dihydroisoquinolin-1-one dihydrochloride]: the ED50 on 5-HT3 receptor came out at 0.39 mg/kg. In series [1], this compound yielded a median lethal dose (LD50) of 50 mg/kg.
